Reference: patent US12648946B2, “Combination of antibody-pyrrolobenzodiazepine derivative conjugate and PARP inhibitor” (DAIICHI SANKYO COMPANY, LIMITED, priority 2019, dated 2026)
Like-named read-outs stand apart in the source and are kept apart here.

T1: human claudin-6 (Homo sapiens, UniProt P56747)
T1 construct: expressed in transfected cells; host or cells: CHO-K1 cells
T1 sequence (P56747 1-220): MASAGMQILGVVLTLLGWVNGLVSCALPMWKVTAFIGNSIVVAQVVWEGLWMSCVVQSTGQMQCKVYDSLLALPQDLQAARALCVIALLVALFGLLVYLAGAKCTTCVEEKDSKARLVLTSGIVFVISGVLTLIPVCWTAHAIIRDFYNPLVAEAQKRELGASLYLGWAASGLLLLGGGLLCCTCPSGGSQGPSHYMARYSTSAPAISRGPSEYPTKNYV

B1: B1: mouse anti-CLDN6 antibody from hybridoma 218B1; heavy chain variable region SEQ ID NO: 21, light chain SEQ ID NO: 19 (antibody, listed as Mus musculus, V domains shown)
VH: EVQLQQSGPELVKPGASVKISCKTSGYTFTEYTMHWVQQSHGKSLEWIGGVNPNSGDTSYNQKFKGKATLTVDKSSSTAYMELRSLTSEDSAVYYCARPGGYDVGYYAMDYWGQGTSVTVSS
VL: DIQMTQTASSLSASLGDRVTISCRASQDINNYLNWYQQKPDGTVKLLIYFTSRLHSGVPSRFSGSGSGTHYSLTITNLEQEDIATYFCQQGYPLPWTFGGGTKLEIK
modifications: amino acid sequence of variable region of B1 antibody heavy chain; amino acid sequence of variable region of B1 antibody light chain

Key:
[1] = tested on: human ovarian cancer cell line OV-90; test: Antitumor test (4), subcutaneous xenograft; type: in vivo, mouse; details: single administration
Protocol: Mouse: Five- to six-week-old female BALB/c nude mice (Charles River Laboratories Japan, Inc.) were subjected to experiment.
Assay and calculation formula: In all of the studies, the major axis and minor axis of a tumor were measured twice a week by using an electronic digital caliper (CD-15CX, Mitutoyo Corp.), and the tumor volume (mm^3) was calculated. The calculation formula is as shown below.
Each of the anti-CLDN6 antibody-drug conjugate ADC1, the anti-HER2 antibody-drug conjugate ADC2, and the anti-TROP2 antibody-drug conjugate ADC3 was diluted with ABS buffer (10 mM acetate buffer (pH 5.5), 5% sorbitol), and a liquid volume of 10 mL/kg was intravenously administered into the tail vein. Olaparib was dissolved in Dimethyl sulfoxide (DMSO), diluted with 10% 2-hydroxy-propyl-β-cyclodextrin (Sigma-Aldrich Co. LLC)/Dulbecco's Phosphate-Buffered Saline, and then a liquid volume of 10 mL/kg was intraperitoneally administered. Talazoparib was dissolved in DMSO, diluted with 10% N,N-dimethylacetamide/5% Kolliphor HS15 (Sigma-Aldrich Co. LLC)/Dulbecco's Phosphate-Buffered Saline, and then a liquid volume of 10 mL/kg was orally administered. […]

[2] = tested on: human pharyngeal cancer cell line FaDu; test: Cell growth inhibition test (2); type: cell-based; details: 144 h
Protocol: (§1) The human pharyngeal cancer cell line FaDu obtained from ATCC (American Type Culture Collection) was used for evaluation. Cells were prepared with MEM containing 10% fetal bovine serum (GE Healthcare), MEM Non-Essential Amino Acids Solution (Thermo Fisher Scientific), and Sodium Pyruvate (Thermo Fisher Scientific) (Thermo Fisher Scientific; hereinafter, referred to as EMEM medium) to reach 6.25×10^3 cells/mL, and 80 μL portions of them were added into a 96-well cell culture microplate. After addition of the cells, the cells were cultured at 37° C. and 5% CO2 overnight.
(§2) On the next day, 10 μL portions of pyrrolobenzodiazepine derivative A, B, or C diluted with EMEM medium to 100 pM, 50 pM, 25 pM, 12.5 pM, 6.25 pM, 3.13 pM, 1.56 pM, or 0.78 pM were added to the microplate. To each well without any pyrrolobenzodiazepine derivative, 10 μL of EMEM medium was added. Further, 10 μL portions of olaparib prepared with EMEM medium to reach 1 μM were added to the microplate. To each well without olaparib, 10 μL of EMEM medium was added. Thereafter, the microplate was cultured at 37° C. and 5% CO2 for 6 days. After culturing, the microplate was taken out of the incubator, and left to stand at room temperature for 30 minutes. CellTiter-Glo Luminescent Cell Viability Assay (Promega Corporation) in an amount equivalent to that of the culture solution was added, and stirred using a plate mixer. The microplate was left to stand at room temperature for 10 minutes, and thereafter the amount of emission was measured by using a plate reader (PerkinElmer).
Cell survival rates in wells with derivative A, B, or […] were calculated by using the following formula.
(§3) [formula] • a: Mean value of amounts of emission from wells with derivative A, B, or C • b: Mean value of amounts of emission from wells with medium • IC50 values were calculated by using the following formula.
(§4) [formula] • a: Concentration of derivative A, B, or C, a • b: Concentration of derivative A, B, or C, b • c: Cell survival rate when derivative A, B, or C of concentration a was added • d: Cell survival rate when derivative A, B, or C of concentration b was added • a and b satisfy a>b at points sandwiching a cell survival rate of 50%.
Cell survival rates in wells with derivative A, B, or C added together with 1 μM olaparib were calculated by using the following formula.
[formula] • a: Mean value of amounts of emission from wells with derivative A, B, or C added together with 1 μM olaparib • b: Mean value of amounts of emission from wells with 1 μM olaparib • IC50 values were calculated by using the following formula.
as §4, with “and 1 μM olaparib were” for “was”

[3] = tested on: human lung cancer cell line Calu-6; test: Cell growth inhibition test (1); type: cell-based; details: Calu-6, 144 h
Protocol: as §1, with “lung” for “pharyngeal”, “Calu-6” for “FaDu”, “1.25×10^4” for “6.25×10^3”
as §2, with “reach 2” for “reach 1”
(§5) Cell survival rates in wells with derivative A, B, or C were calculated by using the following formula.
as §3, §4
Cell survival rates in wells with derivative A, B, or C added together with 2 μM olaparib were calculated by using the following formula.
[formula] a: Mean value of amounts of emission from wells with derivative A, B, or C added together with 2 μM olaparib • b: Mean value of amounts of emission from wells with 2 μM olaparib • IC50 values were calculated by using the following formula.
as §4, with “and 2 μM olaparib were” for “was”

[4] = tested on: human pharyngeal cancer cell line FaDu; test: Cell growth inhibition test (3); type: cell-based; details: 144 h
Protocol: as §1
as §2, with “talazoparib” for “olaparib”, “2 nM” for “1 μM”, “talazoparib,” for “olaparib,”
as §5, §3, §4
Cell survival rates in wells with derivative A, B, or C added together with 2 nM talazoparib were calculated by using the following formula.
[formula] • a: Mean value of amounts of emission from wells with derivative A, B, or C added together with 2 nM talazoparib • b: Mean value of amounts of emission from wells with 2 nM talazoparib • IC50 values were calculated by using the following formula.
as §4, with “and 2 nM talazoparib were” for “was”

[5] = tested on: BxPC-3, human pancreatic cancer cell line of human CLDN6-negative cells; test: Internalization activity of antibodies (Mab-ZAP, CellTiter-Glo); type: cell-based; details: antibody 1 nM with Mab-ZAP 0.5 nM, 5 days
Protocol: (§6) Internalization activity of the mouse anti-CLDN6 antibodies B1 and C7 was evaluated by using the anti-mouse IgG reagent, to which a toxin that inhibits protein synthesis (saporin) had been conjugated, Mab-ZAP (Advanced Targeting Systems). In this evaluation, Mab-ZAP is incorporated into cells in a manner depending on the internalization activity of a mouse anti-CLDN6 antibody, and saporin, which inhibits protein synthesis, is released in the cells to suppress cell growth.
(§7) JEG-3 (ATCC HTB-36), a human choriocarcinoma cell line of human CLDN6-positive cells, NIH: OVCAR-3 (ATCC HTB-161), a human ovarian cancer cell line of human CLDN6-positive cells, or BxPC-3 (ATCC CRL-1687), a human pancreatic cancer cell line of human CLDN6-negative cells, was seeded in a 96-well cell culture microplate at 2×10^3 cells/well, and cultured under conditions of 37° C. and 5% CO2 overnight. On the next day, a mixed solution obtained by mixing each mouse anti-CLDN6 antibody or mouse IgG1 antibody (R&D Systems, Inc.) to a final concentration of 1 nM, with Mab-ZAP (final concentration: 0.5 nM) or AffiniPure Goat Anti-Mouse IgG, Fcγ Fragment Specific (Jackson ImmunoResearch Laboratories Inc.) (final concentration: 0.5 nM), without conjugated toxin, was added, and the cells were cultured under conditions of 37° C. and 5% CO2 for 5 days. The number of surviving cells was determined through quantification of ATP activity by using CellTiter-Glo Luminescent Cell Viability Assay (Promega Corporation).

[6] = tested on: JEG-3, human choriocarcinoma cell line of human CLDN6-positive cells; test: as above; type: cell-based; details: antibody 1 nM with Mab-ZAP 0.5 nM, 5 days
Protocol: as §6, §7

[7] = tested on: NIH: OVCAR-3, human ovarian cancer cell line of human CLDN6-positive cells; test: as above; type: cell-based; details: antibody 1 nM with Mab-ZAP 0.5 nM, 5 days
Protocol: as §6, §7

[8] = target: T1, human claudin-6; test: FACS analysis of hybridoma antibodies on claudin-6 forced-expression cells; type: binding; details: human claudin-6-expressing CHO-K1 cells, cDNA transfection
Protocol: Since the antigen for the 218B1 antibody and 218C7 antibody was estimated to be claudin-6 from the mass spectrometry, forced expression analysis by cDNA transfection was carried out.

[9] = read-out: IC50, growth-suppressing effect, added singly, FaDu, 6 days (test 2)
[10] = read-out: IC50, growth-suppressing effect, added together with 1 μM olaparib, FaDu, 6 days
[11] = read-out: IC50, growth-suppressing effect, added singly, Calu-6, 6 days
[12] = read-out: IC50, growth-suppressing effect, added together with 2 μM olaparib, Calu-6, 6 days
[13] = read-out: IC50, growth-suppressing effect, added singly, FaDu, 6 days (test 3)
[14] = read-out: IC50, growth-suppressing effect, added together with 2 nM talazoparib, FaDu, 6 days

FACS reaction [8]	Molecule	findings such as weight loss ([1]; Day 21, OV-90 model)	tumor growth inhibition (TGI) ([1]; niraparib 75 mg/kg oral for 5 days from Day 0, Day 21, OV-90) [%]	IC50 [2, 9] [nM]	IC50 [2, 10] [nM]	IC50 [3, 11] [nM]	IC50 [3, 12] [nM]	IC50 [4, 13] [nM]	IC50 [4, 14] [nM]	Cell growth-suppressing effect (internalization activity) [5]	Cell growth-suppressing effect (internalization activity) [6]	Cell growth-suppressing effect (internalization activity) [7]
	NC(=O)c1cccc2cn(-c3ccc([C@@H]4CCCNC4)cc3)nc12 [niraparib]	no particularly significant finding such as weight loss	1									
	COc1ccc(C2=CN3C(=O)c4cc(OC)c(OCCCOc5cc6c(cc5OC)C(=O)N5CC7(CC7)C[C@H]5C=N6)cc4NC[C@@H]3C2)cc1 [derivative C, (11a′S)-7′-Methoxy-8′-(3-{[(11aS)-7-methoxy-2-(4-methoxyphenyl)-5-oxo-5,10,11,11a-tetrahydro-1H-pyrrolo[2,1-c][1,4]benzodiazepin-8-yl]oxy}propoxy)-1′,11a′-dihydro-5′H-spiro[cyclopropane-1,2′-pyrrolo[2,1-c][1,4]benzodiazepine]-5′-one]			0.0732	0.0445	0.113	0.0894	0.0831	0.0512			
	COc1cc2c(cc1OCCCCCOc1cc3c(cc1OC)C(=O)N1CC4(CC4)C[C@H]1CN3)N=C[C@@H]1CC3(CC3)CN1C2=O [derivative B, (11a′S)-7′-Methoxy-8′-[(5-{[(11a′S)-7′-methoxy-5′-oxo-5′,11a′-dihydro-1′H-spiro[cyclopropane-1,2′-pyrrolo[2,1-c][1,4]benzodiazepine]-8′-yl]oxy}pentyl)oxy]-1′,10′,11′,11a′-tetrahydro-5′H-spiro[cyclopropane-1,2′-pyrrolo[2,1-c][1,4]benzodiazepine]-5′-one]			0.123	0.0719	0.12	0.0794	0.121	0.0821			
strong positive reaction	B1									no cell growth-suppressing effect	cell growth-suppressing effect	cell growth-suppressing effect
